Laboratory results: ChEMBL document CHEMBL1140031, “Cyclic voltammetric analysis of 2-styrylchromones: relationship with the antioxidant activity” (Bioorg Med Chem, 2008)

Columns and labels:
Assay type in all cases: functional
[1] = Antioxidant activity assessed as superoxide radical scavenging activity
[2] = Antioxidant activity assessed as hypochlorous acid scavenging activity
[3] = Antioxidant activity assessed as peroxynitrite radical scavenging activity in presence of NaHCO3
[4] = Antioxidant activity assessed as singlet oxygen scavenging activity
[5] = Antioxidant activity assessed as peroxynitrite radical scavenging activity in absence of NaHCO3
[6] = Antioxidant activity assessed as H2O2 scavenging activity at 125 uM

Row | SMILES | IC27 [1] | IC50 [2] | IC50 [3] | IC30 [4] | IC50 [5] | Activity [6]
1 | O=c1cc(/C=C/c2ccc(O)cc2)oc2cc(O)ccc12 | 17.7 µM | 92000 nM | 1650 nM | 93400 nM | 1400 nM | –
2 | O=c1cc(/C=C/c2ccc(O)c(O)c2)oc2cc(O)ccc12 | 18.9 µM | 18000 nM | 610 nM | 3700 nM | 300 nM | 50.8%
3 | O=c1cc(/C=C/c2ccccc2)oc2cc(O)ccc12 | 55.9 µM | 72300 nM | – | – | – | –
4 | O=c1cc(/C=C/c2ccc(O)c(O)c2)oc2cc(O)cc(O)c12 | 28.8 µM | 3900 nM | 630 nM | 2300 nM | 260 nM | 66.7%
5 | O=c1cc(/C=C/c2ccccc2)oc2cc(O)cc(O)c12 | 125 µM | 5700 nM | 40600 nM | 81300 nM | 46600 nM | –
6 | O=c1cc(/C=C/c2ccc(O)c(O)c2)oc2cccc(O)c12 | 46.6 µM | 16900 nM | 510 nM | 1900 nM | 260 nM | 50.8%
7 | O=c1cc(/C=C/c2ccc(O)cc2)oc2cccc(O)c12 | – | – | 980 nM | 40000 nM | 1040 nM | 16.9%
8 | O=c1cc(/C=C/c2ccc(O)c(O)c2)oc2ccccc12 | 42.4 µM | 31200 nM | 440 nM | 2700 nM | 240 nM | 44.1%
9 | O=c1cc(/C=C/c2ccc(O)cc2)oc2cc(O)cc(O)c12 | – | 8500 nM | 1210 nM | 72300 nM | 1250 nM | 10.6%
10 | O=c1cc(/C=C/c2ccc(O)cc2)oc2ccccc12 | 56 µM | – | 1230 nM | 105000 nM | 1200 nM | –
